Assay results from patent US10334849B2, “Salts of carboxylic acid herbicides” (Monsanto Technology LLC, priority 2011, dated 2019).
Read-outs that look alike come from different tables or passages of the source.

What was measured:
[1] = system: velvetleaf (ABUTH); details: 21 days after treatment
Method: In this example, the herbicidal effectiveness of selected dicamba salts prepared in accordance with Example 1 was evaluated in greenhouse testing. The herbicidal effectiveness data set forth herein report “Weed killing efficacy” as a percentage following a standard procedure in the art which reflects a visual assessment of plant mortality and growth reduction by comparison with untreated plants, made by technicians specially trained to make and record such observations. Such measurements are relied upon and regularly reported by Monsanto Company in the course of its herbicide business.
The following procedure was used for testing compositions of this example to determine herbicidal effectiveness.
Seeds of velvetleaf (ABUTH) were planted in 85 mm square pots in a soil mix which was previously steam sterilized and prefertilized with a 14-14-14 NPK slow release fertilizer at a rate of 3.6 kg/m^3. The pots were placed in a greenhouse with sub-irrigation. About one week after emergence, seedlings were thinned as needed, including removal of any unhealthy or abnormal plants, to create a uniform series of test pots.
The plants were maintained for the duration of the test in the greenhouse where they received a minimum of 14 hours of light per day. If natural light was insufficient to achieve the daily requirement, artificial light with an intensity of approximately 475 microeinsteins was used to make up the difference. Exposure temperatures were not precisely controlled but averaged about 27° C. during the day and about 21° C. during the night. Plants were sub-irrigated throughout the test to ensure adequate soil moisture levels.
Application of herbicide salt solutions were made by spraying with a track sprayer fitted with a 9501E nozzle calibrated to deliver a spray volume of approximately 38 liters per hectare (l/ha). After treatment, pots were returned to the greenhouse until ready for evaluation.
For evaluation of herbicidal effectiveness, all plants in the test were examined by a single practiced technician, who recorded percent control, a visual measurement of the effectiveness of each treatment by comparison with untreated plants. […] Control of 85% or more is in most cases considered acceptable for normal herbicide use. […] The weed killing efficacy was evaluated 21 days after the treatment.

[2] = Tube test: dicamba volatilized from spray solution into air; format: physicochemical; details: air about 35° C., about 40% RH, 24 hours
Method: Volatility reduction may be quantified experimentally by methods known in the art. In one method the volatility of solutions containing a herbicide salt can be measured in the gas phase (air) via tube tests. In a tube test, a sample of the herbicide solution is placed in a test tube that has been modified to allow air flow through the tube. A selective collection medium is attached to the outlet of the tube to collect volatilized herbicide. The collection medium is then analyzed for the respective herbicide. For further details see the Tube Test Protocol described in Example 2.
(§1) In this example, various salts of dicamba prepared in Example 1 were selected for volatility testing. As described below, spray solutions containing the selected dicamba salts were prepared and subjected to volatility testing via the tube test and/or humidome protocols. Typically, the spray solutions containing the selected dicamba salts also contained potassium glyphosate co-herbicide. Aqueous test spray solutions containing selected salts of dicamba and potassium glyphosate were prepared by mixing a solution of dicamba salt with a solution of potassium glyphosate salt and adjusting the relative proportion and/or diluting with water to arrive at the desired concentration of dicamba and glyphosate.
To measure the dicamba concentration in the gas phase (air) volatilized from the spray solutions, 10 mL samples of each solution were placed into a 50 mL plastic centrifuge tube with one hole approximately ⅛ in (3.2 mm) diameter drilled into the tube at the mark between 20 mL and 30 mL lines. A 22 mm×30 mm polyurethane foam (PUF), cut from a 76 mm length, available from SKC Inc., catalog #P22692, was placed into a glass tube of approximately 20 mm diameter with parafilm wrapped around the outside to obtain a snug fit into the top of the centrifuge tube. A hose was connected to the other end of the glass tube leading to a vacuum line. The air flow was regulated to approximately 2 L/min using a flow controller. Air was pulled through the tube at approximately 2 L/min for 24 hours. Note that the air conditions of flow rate, temperature, pressure and composition (e.g., relative humidity) are not narrowly critical as long as the various samples are analyzed under similar conditions. For instance, air at from about 5° C. to about 40° C., from about 0.5 to about 1.5 bar pressure, from about 0% to about 95% relative humidity, and at a flow rate of from about 0.1 to 10 L/min-mL sample could be suitably used for volatility analysis. In this test, the air pulled through the tubes was at about 35° C. and about 40% relative humidity. The PUF was removed from the glass tube, extracted with 20 mL methanol and the resulting solution analyzed for dicamba concentration using liquid chromatography-mass spectroscopy (LC-MS) methods known in the art.
For comparison, samples of spray solutions containing 2 wt. % a.e. of the diglycolamine salt of dicamba (i.e., CLARITY) were also subjected to the tube test protocol.
(§2) The reduction in volatility is calculated relative to the volatility of the samples containing the diglycolamine salt of dicamba.

[3] = Humidome test: dicamba volatilized into air from spray solution applied to soil; format: physicochemical; details: sprayed on soil at 10 GPA, 24 hours, vs CLARITY without glyphosate
Excerpt: In another method, the volatility of solutions containing a herbicide salt can be evaluated by measuring herbicide concentrations in the gas phase (air) through air sampling in humidome plant growth chambers, which are maintained at constant temperature and humidity. For further details see the Humidome Protocol described in Example 2.
as §1
Humidomes were obtained from Hummert International (Part Nos 14-3850-2 for humidomes and 11-3050-1 for 1020 flat tray) and modified by cutting a 2.2 cm diameter hole on one end approximately 5 cm from the top to allow for insertion of a glass air sampling tube (22 mm OD) containing a polyurethane foam (PUF) filter. The sampling tube was secured with a VITON o-ring on each side of the humidome wall. The air sampling tube external to the humidome was fitted with tubing that was connected to a vacuum manifold immediately prior to sampling.
The flat tray beneath the humidome was filled with 1 liter of sifted dry or wet 50/50 soil (50% Redi-Earth and 50% US 10 Field Soil) to a depth of about 1 cm. To measure the dicamba concentration in the gas phase (air) volatilized from the spray solutions, samples of the spray solutions were sprayed over the soil in the humidome using a track sprayer at a rate of 10 gallons per acre (GPA). To avoid contamination of the sides of the flat tray, each tray was nested in an empty tray prior to spraying.
The flat tray bottom containing the dicamba formulation on soil was covered with a humidome lid and the lid was secured with clamps. The assembled humidomes were placed in a temperature and humidity controlled environment and connected to a vacuum manifold through the air sampling line. Air was drawn through the humidome and PUF at a rate of 2 liters per minutes (LPM) for 24 hours at which point the air sampling was stopped. The humidomes were then removed from the controlled environment and the PUF filter was removed. The PUF filter was extracted with 20 mL of methanol and the solution was analyzed for dicamba concentration using LC-MS methods known in the art.
For comparison, samples of spray solutions containing the diglycolamine salt of dicamba (i.e., CLARITY) at approximately the same weight percent a.e. as the tested dicamba salt sprays were subjected to the humidome tests.
as §2

[4] = dicamba salt 2 wt. % a.e., potassium glyphosate 6 wt. % a.e., vs 2 wt. % a.e. CLARITY without glyphosate
[5] = dicamba salt 0.6 wt. % a.e., potassium glyphosate 0.9 wt. % a.e.
[6] = dicamba salt 0.6 wt. % a.e., potassium glyphosate 1.2 wt. % a.e.

| SMILES | Volatility Reduction Over DGA Dicamba Spray (%) Tube Test [2, 4] | Volatility Reduction Over DGA Dicamba Spray (%) Humidome Test [3, 5] | further results |
| --- | --- | --- | --- |
| CCc1ncc[nH]1.COc1c(Cl)ccc(Cl)c1C(=O)O [2-ethyl imidazolium dicamba] |  |  | Weed killing efficacy (%) ([1]; application rate 140 g a.e./ha): 38.3%; Weed killing efficacy (%) ([1]; application rate 280 g a.e./ha): 67.5%; Weed killing efficacy (%) ([1]; application rate 560 g a.e./ha): 80.8% |
| CCc1nc(C)c[nH]1.COc1c(Cl)ccc(Cl)c1C(=O)O [2-ethyl-4-methyl imidazolium dicamba] |  |  | Weed killing efficacy (%) ([1]; application rate 140 g a.e./ha): 30.0%; Weed killing efficacy (%) ([1]; application rate 280 g a.e./ha): 62.5%; Weed killing efficacy (%) ([1]; application rate 560 g a.e./ha): 83.3% |
| COc1c(Cl)ccc(Cl)c1C(=O)O.Cc1ncc[nH]1 [2-methyl imidazolium dicamba] |  |  | Weed killing efficacy (%) ([1]; application rate 140 g a.e./ha): 40.0%; Weed killing efficacy (%) ([1]; application rate 280 g a.e./ha): 66.7%; Weed killing efficacy (%) ([1]; application rate 560 g a.e./ha): 85.0% |
| C1CCC(N2CCNCC2)CC1.COc1c(Cl)ccc(Cl)c1C(=O)O [Salt 3] | 75% |  |  |
| COc1c(Cl)ccc(Cl)c1C(=O)O.OCCN1CCNCC1 [Salt 4] | 69% |  |  |
| CCCCN1CCNCC1.COc1c(Cl)ccc(Cl)c1C(=O)O [Salt 5] | 70% |  |  |
| CCN1CCNCC1.COc1c(Cl)ccc(Cl)c1C(=O)O [Salt 6] | 83% |  |  |
| CC(C)c1ncc[nH]1.COc1c(Cl)ccc(Cl)c1C(=O)O [Salt 9] | 65% | 63% | Volatility Reduction Over DGA Dicamba Spray (%) Humidome Test [3, 6]: 67% |
| CCc1nc(C)c[nH]1.COc1c(Cl)ccc(Cl)c1C(=O)O [Salt 10] | 72% | 86% | Volatility Reduction Over DGA Dicamba Spray (%) Tube Test ([2]; dicamba salt 10 wt. % a.e., no potassium glyphosate, vs 2 wt. % a.e. CLARITY): 88%; Volatility Reduction Over DGA Dicamba Spray (%) Humidome Test [3, 6]: 85%; Volatility Reduction Over DGA Dicamba Spray (%) Humidome Test ([3]; dicamba salt 2.4 wt. % a.e., potassium glyphosate 4.8 wt. % a.e.): 86% |
| CCc1ncc[nH]1.COc1c(Cl)ccc(Cl)c1C(=O)O [Salt 11] | 67% | 67% | Volatility Reduction Over DGA Dicamba Spray (%) Humidome Test [3, 6]: 60% |
| COc1c(Cl)ccc(Cl)c1C(=O)O.Cc1ncc[nH]1 [Salt 12] |  | 46% | Volatility Reduction Over DGA Dicamba Spray (%) Humidome Test [3, 6]: 50% |
| COc1c(Cl)ccc(Cl)c1C(=O)O.Cc1c[nH]c(-c2ccccc2)n1 [Salt 14] |  | 92% |  |
| CCCN1CCC(=O)CC1.COc1c(Cl)ccc(Cl)c1C(=O)O [Salt 16] | 20% |  |  |
| CC(C)CN1CCC(=O)CC1.COc1c(Cl)ccc(Cl)c1C(=O)O [Salt 17] | 57% |  |  |
| C1CCN(C2CCNCC2)CC1.COc1c(Cl)ccc(Cl)c1C(=O)O.COc1c(Cl)ccc(Cl)c1C(=O)O [Salt 19] | 23% |  |  |
| C(CC1CCNCC1)CC1CCNCC1.COc1c(Cl)ccc(Cl)c1C(=O)O.COc1c(Cl)ccc(Cl)c1C(=O)O [Salt 22] | 60% | 68% |  |
| CN1CCN(C)CC1.COc1c(Cl)ccc(Cl)c1C(=O)O [Salt 23] | 23% |  |  |
| COc1c(Cl)ccc(Cl)c1C(=O)O.OCCN1CCN(CCO)CC1 [Salt 24] | 57% | 76% |  |
